The subject of data set [1] is HepG2 cells. The experiment in a line: Cellular content of adenine and cordycepin nucleotides by LC-MS. As to conditions: 1 h. It is filed as cell-based, human. Here is the method: After treatment, cells for nucleotide analysis were lysed in 70% perchloric acid and the acid extracted as described previously ([Hawley et al., 2010]). The levels of AMP, ADP, ATP, CoMP, CoDP and CoTP were measured using a TSQ Quantiva (with an ion Max NG source) interfaced with an Ultimate 3000 Liquid Chromatography system (ThermoScientific). Separation of all compounds was achieved using a porous graphitic carbon column (HyperCarb 30x1 mm ID […]; Part No: C-35003-031030, Thermo-Scientific) as described previously ([Ross et al., 2017]) with some modifications. Mobile phase buffer A consisted of 0.3% (v/v) formic acid adjusted to pH 9 with ammonia prior to a 1:10 dilution. Mobile phase buffer B was 80% (v/v) acetonitrile. The column was maintained at a controlled temperature of 40°C and equilibrated with 10% buffer B for 5 min at a constant flow rate of 0.05 mL/min. Aliquots of 1μL of each sample were loaded onto the column and compounds eluted with a linear gradient from 10% buffer B to 12% buffer B within 1 min, then 12% B to 100% B within 2 min; the column was then washed for 4 min with 100% Buffer B. Eluents were sprayed into the TSQ Quantiva using Ion Max NG ion source with ion transfer tube temperature at 350°C and vaporizer temperature 30°C. The TSQ Quantiva was run in negative mode with a spray voltage of 3500, sheath gas 40, aux gas 20 and sweep gas 2. Levels of ATP, ADP and AMP were measured using multiple reactions monitoring mode (MRM) with transitions described previously ([Ross et al., 2017]). For CoMP, CoDP and CoTP, optimised collision energies and radio frequencies were determined by infusing the pure compounds. Two transitions were used to monitor each of the three compounds, CoMP (330.22>134.01, 330.22>195.11), CoDP (410>256.67, 410>392.0) and CoTP (490>158.89, 490.11>472.11).

A short description of data set [2]: Measurement of cordycepin in cell medium of HepG2 cells (LC-MS). It is filed as in vitro ADME, human. The settings on record: human, 100 μM added. Here is the method: (§1) The same LC-MS system was used to detect and quantify cordycepin. LC conditions were optimized using a TSKgel Amine-80 Column (100 × 1 mm, ID 5 μm, Part No.0020010, TOSOH Bioscience). Mobile phase buffer A consisted of 0.1% (v/v) formic acid and buffer B was in 80% (v/v) acetonitrile. The column was maintained at 40°C and was equilibrated with 98% buffer B for 5 min at a constant flow rate of 0.05 mL/min. Samples were diluted 1/1500 and aliquots of 4 μL of each sample loaded onto the column. Cordycepin was eluted by decreasing buffer B from 98% to 85% within 2 min and then to 10% within 5 min. Eluents were sprayed into the TSQ Quantiva which was run in positive mode with a spray voltage of 2700, sheath gas 40, aux gas 20, sweep gas 2. Levels of cordycepin were measured using multiple reaction monitoring mode (MRM) with optimized collision energies and radio frequencies previously determined by infusing pure compound. One transition (252 > 136) was used to detect and monitor cordycepin.

In data set [3] the test system is HepG2 cells. The description is as above. As to conditions: 100 μM added. It is filed as in vitro ADME, human. The procedure:
as §1

For data set [4], the system named is wild-type (WT) U2OS cells. The data set is described as follows: Clonal survival assay, wild-type U2OS. Format: cell-based. The settings on record: Homo sapiens, 8 h incubation, read-out: half-maximal effect on clonal survival. The procedure:
Cells were seeded into 6-well plates at equal density and treated in triplicate at 40% to 60% confluence with vehicle or cordycepin for the indicated time. Cells were trypsinized in 1 ml trypsin:EDTA for 5 min and diluted in 1 ml of complete medium. Cells in control wells were counted using a hemocytometer and 1000 cells from vehicle and cordycepin-treated wells were seeded in triplicate into 10 cm dishes containing 10 ml of medium. The dishes were incubated at 37°C for 10-15 days. On the last day, the medium was decanted, cells fixed with ice-cold methanol for 10 min and stained with 10% v/v Giemsa stain in water for 15 min. The dishes were washed with water and the number of colonies counted manually.

The test system of the next data set is AMPK. The data set is described as follows: Phosphorylation of AMPK, ACC and Raptor in HepG2 cells (western blotting). The settings on record: cordycepin at 100 μM and above, 1 h. It is filed as cell-based, human. The procedure:
SDS-PAGE for AMPK and Raptor was performed using precast Bis-Tris 4–12% gradient polyacrylamide gels in the MOPS buffer system (Invitrogen). SDS-PAGE for ACC was performed using precast Tris-Acetate 3–8% gradient polyacrylamide gels in the Tris-Acetate buffer system (Invitrogen). Proteins were transferred to nitrocellulose membranes using the iBlot2 system (Invitrogen). Membranes were blocked for 1 hr in Li-Cor Odyssey blocking buffer. The membranes were probed with appropriate antibody (0.1–1 μg/ml) in Li-Cor Odyssey blocking buffer, except where the blotting enhancement system was used (Thermo Scientific; as per manufacturers’ instructions). Detection was performed using secondary antibody (1 μg/ml) coupled to IR 680 or IR 800 dye, or IR-streptavidin 800 dye, and the membranes were scanned using the Li-Cor Odyssey IR imager. Protein concentrations were determined by Coomassie Blue binding with bovine serum albumin as standard ([Bradford, 1976]).
(A western blot detects proteins with antibodies after separation by electrophoresis.)

Data set [5] has as its target T1, AMPK complexes containing the R531G mutant (Homo sapiens, UniProt Q9UGJ0, R531G).
T1 construct: expressed in transfected cells; host or cells: HepG2 (transient, Fugene 6)
The experiment in a line: AMPK activity in anti-FLAG immunoprecipitates, HepG2 cells with FLAG-tagged AMPK-γ2 R531G mutant. It is filed as cell-based. The settings on record: 1 h, 300 μM cordycepin, 10 mM phenformin or 300 μM A-769662. Here is the method: HepG2 cells ([…]) were cultured in Minimum Essential Medium (MEM) supplemented with 10% (v/v) FBS, 1% (v/v) non-essential amino acids and 1% (v/v) penicillin/streptomycin. Transient transfection of DNAs encoding FLAG-tagged AMPK-γ2 or an R531G mutant of AMPK-γ2 were carried out 36-48 hr prior to experiments using Fugene 6 according to manufacturers’ instructions. U2OS cells ([…]) were cultured in Dulbecco’s Modified Eagle’s Medium (DMEM) supplemented with 10% (v/v) FBS and 1% (v/v) penicillin/streptomycin.
HepG2 cells were transiently transfected with DNAs encoding FLAG-tagged wild type AMPK-γ2 or the R531G mutant, using Fugene 6 according to the manufacturers’ instructions. After transfection for 48 hr, cells were treated with various agents as described, and cell lysates prepared ([Hawley et al., 2018]). FLAG-tagged AMPK was then immunoprecipitated from 150 μg total protein by incubation at 4°C for 2 hr on a roller mixer with 9 μl of EZview Red anti-FLAG M2 affinity gel. After extensive washing, the immunoprecipitates were assayed for AMPK activity (50 μg per assay in a total volume of 50 μl) using the AMARA peptide (200 μM) as substrate in the presence of 200 μM AMP, 5 mM MgCl2 and 200 μM γ-^32P-ATP as described previously ([Fyffe et al., 2018]).

The values below come from paper PMC7031697, “Mechanism of Activation of AMPK by Cordycepin” (Cell Chemical Biology, 2020).

The half-life is the time needed for the level to fall by half in the phase considered. Higher therefore signals slow loss.

T1 sequence (Q9UGJ0 whole entry R531G, one chain of several): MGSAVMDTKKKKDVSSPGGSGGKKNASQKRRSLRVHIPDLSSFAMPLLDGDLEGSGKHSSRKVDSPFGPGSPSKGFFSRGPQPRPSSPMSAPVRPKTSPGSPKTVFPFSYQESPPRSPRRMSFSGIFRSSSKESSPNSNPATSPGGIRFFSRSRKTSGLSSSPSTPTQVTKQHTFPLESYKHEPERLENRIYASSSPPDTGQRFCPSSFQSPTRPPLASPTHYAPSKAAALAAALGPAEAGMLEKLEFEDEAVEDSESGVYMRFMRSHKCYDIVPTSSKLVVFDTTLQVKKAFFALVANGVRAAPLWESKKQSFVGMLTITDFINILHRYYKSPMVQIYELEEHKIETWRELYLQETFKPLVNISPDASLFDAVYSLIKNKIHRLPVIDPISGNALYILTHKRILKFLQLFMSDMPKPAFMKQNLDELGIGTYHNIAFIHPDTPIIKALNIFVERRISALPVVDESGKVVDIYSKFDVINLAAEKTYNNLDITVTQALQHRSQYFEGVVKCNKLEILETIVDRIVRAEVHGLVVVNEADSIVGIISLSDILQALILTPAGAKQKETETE

With `Nc1ncnc2c1ncn2[C@@H]1O[C@H](CO)C[C@H]1O` [cordycepin, 3′-deoxyadenosine], the “AMPK activation and CoMP formation” value in the data set with HepG2 cells [1] (30 μM cordycepin or below) is “neither AMPK activation nor CoMP formation was observed”. In the data set with HepG2 cells [1] (1 mM cordycepin), the “decrease in cellular ADP content” value worked out at 14 fold, the “decrease in cellular AMP content” value is on record as 5 fold and the “drop in cellular ATP content” value is reported as 100 fold. Besides, the half-life at 100 μM in data set [2] was approximately 1.33 h. The “decline of cordycepin in the medium” value with HepG2 cells [3] (by 2 h) is recorded as 70%. For the same compound, the “cordycepin remaining in the medium” value in the data set on HepG2 cells [3] (by 4 h) is given as “almost disappeared”. Besides, in data set [4], the EC50 is 81 ± 4 µM. The “phosphorylation of Thr172 on AMPK, ACC1 Ser80 and Raptor Ser792” value in the data set on AMPK is “increased”. In addition, the “activation of AMPK complexes containing the R531G mutant” value in data set [5] was “not activated”.
